Test results: US7166567B2, “Fragrance compositions” (Givaudan SA, priority 2000, dated 2007)
Like-named read-outs stand apart in the source and are kept apart here.

How the values were obtained:
Type in all cases: physicochemical
[1] = Aged retention of fragrance components in powder detergent, GC/MS; conditions: 1 month, 37° C., 70% relative humidity; for Retention With coating: composition as Example 1 with coating in detergent base; for Retention Without coating: composition as Example 1 without coating in detergent base; for Retention free perfume: free perfume in detergent base, 0.35 wt %
Experimental: Compositions were prepared substantially as set out in Example 1 wherein one composition was provided with a coating and the other not.
Compositions were incorporated into standard, unperfumed detergent bases resulting in 130.00 g perfumed powder detergent with a perfume level of 0.35 wt % based on total powder detergent. As a reference, 0.46 g of free perfume was incorporated into 129.54 g of the same standard detergent base. Both samples and reference were filled separately into carton boxes, sealed and stored in a climate chamber at 70% relative humidity and 37° C. for 1 month. All samples were compared in terms of aged fragrance material profile measured by GC/MS analysis.

[2] = Retention of fragrance material components after granulation by GC/MS; conditions: for Divided. Initial Retention: fragrance divided between core particles and outer matrix (Example 2.2); for Undivided. Initial Retention: whole fragrance in outer matrix (Example 2.1)
Source text: In this example, fragrance material components are divided between core particles and outer matrix. The selection is made such that fragrance components having a loss factor of FL>10^2 Pa ppm are present in core particles whereas the components having a loss factor of FL<10^2 Pa ppm are present in the outer matrix. Such a composition is then compared with a composition wherein total fragrance material is provided in an outer matrix, the core particles being fragrance material-free. […] The retention of certain fragrance material components after the granulation process was measured by GC/MS analysis.

[3] = Loss Factor (vapour pressure x water solubility at room temperature)
Source text: Preferred components of a fragrance material for addition to the outer matrix are substances that have a Loss Factor (FL) that is lower than 10^2 Pa ppm. The term <<Loss Factor>> refers to a parameter that is related to the losses of fragrance material during drying and is defined as the product of the pure component vapour pressure (Pa) and the water solubility (ppm) at room temperature. Vapour pressures and water solubility data for commercially available fragrance components are well known and so the Loss Factor for a given fragrance component may be easily calculated. Alternatively, vapour pressure and water solubility measurements may be easily taken using techniques well known in the art. […] The water solubility of fragrances may be measured according to techniques known in the art for the measurement of sparingly water-soluble materials. A preferred technique involves the formation of a saturated solution of a fragrance component in water. A tube with a dialysed membrane is placed in the solution such that after equilibration an idealised solution is formed within the tube. The tube may be removed and the water solution therein extracted with a suitable organic solvent to remove the fragrance component. Finally the extracted fragrance component may be concentrated and measured, for example using gas chromatography.

[4] = vapour pressure (Pa) x water solubility (ppm), room temperature

Retention With coating [1] [%] | Retention Without coating [1] [%] | Retention free perfume [1] [%] | Divided. Initial Retention [2] [%] | Undivided. Initial Retention [2] [%] | Loss Factor FL [3] [Pa ppm] | Loss Factor FL [3, 4] [Pa ppm] | SMILES
50 | 26 | 0 | – | – | – | – | CC(=O)OCc1ccccc1 [Benzyl acetate]
– | – | – | 84 | 56 | 84 | – | CC(=O)CCC1=C(C)CCCC1(C)C [Dihydro beta ionone]
– | – | – | 94 | 91 | – | 1.37 | O=C(OC1CCCCC1)c1ccccc1O [Cyclohexyl salicylate]
72 | 36 | 25 | – | – | – | – | OCCc1ccccc1 [Phenyl ethyl alcohol]
41 | 18 | 0 | – | – | – | – | C=C(C)[C@H]1CC=C(C)CC1 [Limonene]
65 | 36 | 4 | – | – | – | – | CC(C=O)Cc1ccc(C(C)(C)C)cc1 (centres unmarked) [Lilial]
71 | 18 | 26 | 100 | 53 | – | 761 | CC(C)=CCCC(C)CCO (centres unmarked) [Citronellol]
91 | 51 | 49 | – | – | – | – | CC(=O)/C(C)=C/C1C(C)=CCCC1(C)C (centres unmarked) [Gamma methyl ionone]
– | – | – | 88 | 99 | – | – | O=C(OCc1ccccc1)c1ccccc1 [Benzyl benzoate]
94 | 47 | 18 | – | – | – | – | CCCCCCOC(=O)c1ccccc1O [Hexyl salicylate]
– | – | – | 93 | 44 | 424 | – | CCCCCCCCCC=O [Aldehyde C10]
– | – | – | 100 | 75 | – | 90 | CC(=O)/C=C/C1=C(C)CCCC1(C)C [Beta ionone]

SMILES | Retention With coating [1] [%] | Retention Without coating [1] [%] | Retention free perfume [1] [%] | Divided. Initial Retention [2] [%] | Undivided. Initial Retention [2] [%] | Loss Factor FL [3] [Pa ppm] | Loss Factor FL [3, 4] [Pa ppm]
C=CC(C)(CCC=C(C)C)OC(C)=O (centres unmarked) [Linalyl acetate] | 80 | 39 | 8 | – | – | – | –
CCC(C)(O)CCCC(C)C (centres unmarked) [Tetrahydro linalool] | 84 | 50 | 33 | 97 | 47 | – | 3466
